Structures are written as SMILES.

In general, IC50 refers to the concentration needed to halve the response being measured. A low value points to higher potency.

In the assay the target is T1, EGFR TMLRCS (Homo sapiens, UniProt P00533, C797S/L858R/T790M).
T1 construct: host or cells: BaF3-TMLRCS (Ba/F3 cells, kept under puromycin selection)
T1 sequence (P00533 25-1210 T790M/C797S/L858R): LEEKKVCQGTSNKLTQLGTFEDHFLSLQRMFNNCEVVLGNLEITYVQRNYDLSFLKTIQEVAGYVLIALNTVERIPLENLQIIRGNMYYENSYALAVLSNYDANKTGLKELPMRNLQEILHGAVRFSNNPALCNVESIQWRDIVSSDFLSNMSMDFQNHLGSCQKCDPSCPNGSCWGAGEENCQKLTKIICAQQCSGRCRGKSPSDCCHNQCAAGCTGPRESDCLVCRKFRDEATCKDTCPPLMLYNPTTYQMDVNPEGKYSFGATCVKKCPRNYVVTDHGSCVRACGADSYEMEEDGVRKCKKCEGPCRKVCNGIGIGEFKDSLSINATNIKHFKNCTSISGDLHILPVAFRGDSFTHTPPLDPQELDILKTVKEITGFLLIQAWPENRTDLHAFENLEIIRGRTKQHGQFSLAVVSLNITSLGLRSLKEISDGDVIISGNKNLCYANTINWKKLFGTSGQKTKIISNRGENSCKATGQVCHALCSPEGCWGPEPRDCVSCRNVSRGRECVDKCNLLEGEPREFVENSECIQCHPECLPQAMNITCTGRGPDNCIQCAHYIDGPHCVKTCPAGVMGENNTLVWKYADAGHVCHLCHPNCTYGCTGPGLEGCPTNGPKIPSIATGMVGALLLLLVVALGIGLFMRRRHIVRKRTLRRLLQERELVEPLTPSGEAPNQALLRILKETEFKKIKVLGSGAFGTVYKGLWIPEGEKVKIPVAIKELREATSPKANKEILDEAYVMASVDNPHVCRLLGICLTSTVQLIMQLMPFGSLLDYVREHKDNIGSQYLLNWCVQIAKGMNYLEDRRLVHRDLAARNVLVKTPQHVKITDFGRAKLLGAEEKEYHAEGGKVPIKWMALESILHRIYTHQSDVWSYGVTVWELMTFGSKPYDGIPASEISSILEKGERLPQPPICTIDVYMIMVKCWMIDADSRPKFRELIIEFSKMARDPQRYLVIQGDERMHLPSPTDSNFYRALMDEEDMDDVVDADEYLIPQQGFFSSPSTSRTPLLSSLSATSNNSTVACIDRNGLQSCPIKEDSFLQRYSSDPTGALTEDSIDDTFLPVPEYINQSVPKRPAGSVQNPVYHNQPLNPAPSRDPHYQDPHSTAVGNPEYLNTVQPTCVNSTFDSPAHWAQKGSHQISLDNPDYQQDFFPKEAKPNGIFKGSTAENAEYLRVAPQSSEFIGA
Description: HTRF Phospho EGFR TMLRCS Assay (Cellular). Format: cell-based. Conditions: BaF3-TMLRCS cell line, 4 hours incubation, Phospho-EGFR HTRF readout. Here is the method: HTRF Phospho EGFR TMLRCS Assay (Cellular)
BaF3-TMLRCS cell line were obtained from Crownbio (San Diego, CA, USA). Cells were maintained at 37° C., 5% CO2 in RPMI ATCC (Gibco 31870)+2 mM Glutamine+0.5 μg/ml Puromycin supplemented with 10% fetal bovine serum (FBS) (Gibco).
Cells are transferred as above to Greiner Bio-One, Nr. 784-08 micro-titerplate at 20000 cells/well in 12.5 μl of growth medium/well after the plates had been pre-filled with 12.5 nl of DMSO solutions of the to be tested compounds (in dose response) or DMSO only. After spinning the plates at 300×g for 30 seconds the cells were incubated for 4 hours at 37 C, 5% CO2, 95% humidity. The cells were lysed by adding to the compound mix 4 μl/well of the supplemented lysis buffer (Cis-bio, Phospho-EGFR HTRF kit, 64EG1PEH), followed by incubation for 30 min at room temperature with shaking (400 rpm). The plates were then frozen and stored overnight at −80 C. On the next day and after thawing the plates, 4 μl of a mixture of anti-Phospho-EGFR Cryptate and of anti-Phospho-EGFR-d2 antibody solutions prepared in the supplied detection buffer was added to each well. The lidded plates were then incubated for 4 h at room temperature before reading the fluorescence emission at 616 and 665 nm using an Envision reader (Perkin Elmer). Data was analyzed in similar fashion as above using the normalized ratio of the 665 to 616 signals multiplied by 10000.
Background: Time-resolved FRET reads energy transfer from a long-lived donor to a nearby acceptor.
In turn, `COCCN1CCC(c2ccc(-c3cc(Cl)c4cn(C(C(=O)Nc5nccs5)c5ncn6c5C[C@@H](F)C6)nc4c3Cl)cc2)CC1` (stereo partly drawn) [Example 45, 2-(4,7-Dichloro-6-(4-(1-(2-methoxyethyl)piperidin-4-yl)phenyl)-2H-indazol-2-yl)-2-((R)-6-fluoro-6,7-dihydro-5H-pyrrolo[1,2-c]imidazol-1-yl)-N-(thiazol-2-yl)acetamide] yielded a 50% inhibitory concentration (IC50) of 4 nM.
As for `CN(Cc1ccc(-c2cc(Cl)c3cn(C(C(=O)Nc4nccs4)c4ncn5c4C[C@@H](F)C5)nc3c2Cl)cc1)C1CCC(O)CC1` (mixture of isomers) [Example 94, rac-2-(4,7-Dichloro-6-(4-(((4-hydroxycyclohexyl)(methyl)amino)methyl)phenyl)-2H-indazol-2-yl)-2-((R)-6-fluoro-6,7-dihydro-5H-pyrrolo[1,2-c]imidazol-1-yl)-N-(thiazol-2-yl)acetamide], the figure is 4 nM; as for `CCN1CC[C@@H](c2ccc(-c3cc(C)c4cn(C(C(=O)Nc5nccs5)c5ncn6c5CCC6)nc4c3Cl)cc2)[C@H](F)C1` (single isomer, unassigned) [Example 127], 9 nM; as for `COCCNCCc1ccc(-c2cc(Cl)c3cn(C(C(=O)Nc4nccs4)c4ncn5c4C[C@@H](F)C5)nc3c2Cl)cc1` (mixture of isomers) [Example 101, rac-2-(4,7-Dichloro-6-(4-(24(2-methoxyethyl)amino)ethyl)phenyl)-2H-indazol-2-yl)-2-((R)-6-fluoro-6,7-dihydro-5H-pyrrolo[1,2-c]imidazol-1-yl)-N-(thiazol-2-yl)acetamide], 10 nM.
The molecule `O=C(Nc1nccs1)C(c1ncn2c1C[C@@H](F)C2)n1cc2c(Cl)cc(-c3ccc(CCCN4CCC(CO)CC4)cc3)c(Cl)c2n1` (mixture of isomers) [Example 47, rac-2-(4,7-Dichloro-6-(4-(3-(4-(hydroxymethyl)piperidin-1-yl)propyl)phenyl)-2H-indazol-2-yl)-2-((R)-6-fluoro-6,7-dihydro-5H-pyrrolo[1,2-c]imidazol-1-yl)-N-(thiazol-2-yl)acetamide] registered a half-inhibitory concentration (IC50) of 8 nM.
As for `O=C(Nc1nccs1)C(c1ncn2c1C[C@@H](F)C2)n1cc2c(Cl)cc(-c3ccc(N4CCOCC4)nc3)c(Cl)c2n1` (mixture of isomers) [Example 29, 2-[4,7-Dichloro-6-(6-morpholin-4-ylpyridin-3-yl)indazol-2-yl]-2-[rac-(6R)-6-fluoro-6,7-dihydro-5H-pyrrolo[1,2-c]imidazol-1-yl]-N-(1,3-thiazol-2-yl)acetamide], the figure is 6 nM; as for `CCN1C[C@H]2CC(c3ccc(-c4cc(Cl)c5cn(C(C(=O)Nc6nccs6)c6ncn7c6C[C@@H](F)C7)nc5c4Cl)cc3)C[C@H]2C1` (stereo partly drawn) [Example 43, 2-(4,7-Dichloro-6-(4-((3aR,6aS)-2-ethyloctahydrocyclopenta[c]pyrrol-5-yl)phenyl)-2H-indazol-2-yl)-2-((R)-6-fluoro-6,7-dihydro-5H-pyrrolo[1,2-c]imidazol-1-yl)-N-(thiazolyl)acetamide], 11 nM; as for `O=C(Nc1nccs1)C(c1ncn2c1C[C@@H](F)C2)n1cc2c(Cl)cc(-c3ccc(CN4CCC(CCO)CC4)cc3)c(Cl)c2n1` (stereo partly drawn) [Example 78, 2-(4,7-Dichloro-6-(4-((4-(2-hydroxyethyl)piperidin-1-yl)methyl)phenyl)-2H-indazol-2-yl)-2-((R)-6-fluoro-6,7-dihydro-5H-pyrrolo[1,2-c]imidazol-1-yl)-N-(thiazol-2-yl)acetamide], 3 nM.
With `Cc1cc(-c2ccc(N3CCOCC3)nc2)c(C)c2nn(C(C(=O)Nc3nccs3)c3ncn4c3C[C@@H](F)C4)cc12` (stereo partly drawn) [Example 124, 2-(4,7-Dimethyl-6-(6-morpholinopyridin-3-yl)-2H-indazol-2-yl)-2-((R)-6-fluoro-6,7-dihydro-5H-pyrrolo[1,2-c]imidazol-1-yl)-N-(thiazol-2-yl)acetamide], half-maximal inhibition (IC50) required 5 nM.
`N#Cc1cc(-c2cc(Cl)c3cn(C(C(=O)Nc4nccs4)c4ncn5c4C[C@@H](F)C5)nc3c2Cl)ccc1N1CCOCC1` (mixture of isomers) [Example 36, rac-2-(4,7-Dichloro-6-(3-cyano-4-morpholinophenyl)-2H-indazol-2-yl)-2-((R)-6-fluoro-6,7-dihydro-5H-pyrrolo[1,2-c]imidazol-1-yl)-N-(thiazol-2-yl)acetamide] came in with an IC50 of 9 nM.
The molecule `CN(C)CCOc1ccc(-c2cc(Cl)c3cn(C(C(=O)Nc4nccs4)c4ncn5c4C[C@@H](F)C5)nc3c2Cl)cc1` (mixture of isomers) [Example 34, 2-[4,7-Dichloro-6-[4-[2-(dimethylamino)ethoxy]phenyl]indazol-2-yl]-2-[rac-(6R)-6-fluoro-6,7-dihydro-5H-pyrrolo[1,2-c]imidazol-1-yl]-N-(1,3-thiazol-2-yl)acetamide] came in with an IC50 of 6 nM.
The molecule `O=C(Nc1nccs1)C(c1ncn2c1C[C@@H](F)C2)n1cc2c(Cl)cc(-c3ccc(N4CCOCC4)cc3)c(C(F)F)c2n1` (mixture of isomers) [Example 106, rac-2-(4-Chloro-7-(difluoromethyl)-6-(4-morpholinophenyl)-2H-indazol-2-yl)-2-((R)-6-fluoro-6,7-dihydro-5H-pyrrolo[1,2-c]imidazol-1-yl)-N-(thiazol-2-yl)acetamide] gave an IC50 of 8 nM.
In the case of `CCN1CCN(c2ccc(-c3cc(C)c4cn(C(C(=O)Nc5nccs5)c5ncn6c5C[C@@H](F)C6)nc4c3C)cc2)CC1` (stereo partly drawn) [Example 121, 2-(6-(4-(4-Ethylpiperazin-1-yl)phenyl)-4,7-dimethyl-2H-indazol-2-yl)-2-((R)-6-fluoro-6,7-dihydro-5H-pyrrolo[1,2-c]imidazol-1-yl)-N-(thiazol-2-yl)acetamide], the IC50 was determined as 8 nM.
Regarding `O=C(Nc1nccs1)C(c1ncn2c1C[C@@H](F)C2)n1cc2c(Cl)cc(-c3ccc(N4CC5(CCNCC5)C4)cc3)c(Cl)c2n1` (stereo partly drawn) [Example 69, 2-(6-(4-(2,7-Diazaspiro[3.5]nonan-2-yl)phenyl)-4,7-dichloro-2H-indazol-2-yl)-2-((R)-6-fluoro-6,7-dihydro-5H-pyrrolo[1,2-c]imidazol-1-yl)-N-(thiazol-2-yl)acetamide], the IC50 was determined as 4 nM.
`CN(C)Cc1ccc(-c2cc(Cl)c3cn(C(C(=O)Nc4nccs4)c4ncn5c4C[C@@H](F)C5)nc3c2Cl)cc1F` (mixture of isomers) [Example 49, rac-2-(4,7-Dichloro-6-(4-((dimethylamino)methyl)-3-fluorophenyl)-2H-indazol-2-yl)-2-((R)-6-fluoro-6,7-dihydro-5H-pyrrolo[1,2-c]imidazol-1-yl)-N-(thiazol-2-yl)acetamide] registered a 50% inhibitory concentration (IC50) of 8 nM.
The molecule `Cc1cc(-c2ccc(N3CCOCC3)cc2)c(C)c2nn(C(C(=O)Nc3nccs3)c3ncn4c3C[C@@H](F)C4)cc12` (stereo partly drawn) [Example 118, 2-(4,7-Dimethyl-6-(4-morpholinophenyl)-2H-indazol-2-yl)-2-((R)-6-fluoro-6,7-dihydro-5H-pyrrolo[1,2-c]imidazol-1-yl)-N-(thiazol-2-yl)acetamide] yielded an IC50 of 7 nM.
Molecule `O=C(Nc1nccs1)C(c1ncn2c1C[C@@H](F)C2)n1cc2c(Cl)cc(-c3ccc(CCN4CCC(CO)C4)cc3)c(Cl)c2n1` (mixture of isomers) [Example 52, rac-2-(4,7-Dichloro-6-(4-(2-(3-(hydroxymethyl)pyrrolidin-1-yl)ethyl)phenyl)-2H-indazol-2-yl)-2-((R)-6-fluoro-6,7-dihydro-5H-pyrrolo[1,2-c]imidazol-1-yl)-N-(thiazol-2-yl)acetamide] displayed an IC50 of 6 nM.
Molecule `O=C(Nc1nccs1)C(c1ncn2c1C[C@@H](F)C2)n1cc2c(Cl)cc(-c3ccc(C4CCN(C5CC(O)C5)CC4)cc3)c(Cl)c2n1` (mixture of isomers) [Example 87, rac-2-(4,7-Dichloro-6-(4-(1-(3-hydroxycyclobutyl)piperidin-4-yl)phenyl)-2H-indazol-2-yl)-2-((R)-6-fluoro-6,7-dihydro-5H-pyrrolo[1,2-c]imidazol-1-yl)-N-(thiazol-2-yl)acetamide] yielded an IC50 of 9 nM.
As for `CCN1CC2(CCCN(c3ccc(-c4cc(Cl)c5cn(C(C(=O)Nc6nccs6)c6ncn7c6C[C@@H](F)C7)nc5c4Cl)cc3)C2)C1` (stereo partly drawn) [Example 82], the figure is 11 nM; as for `O=C(Nc1nccs1)C(c1ncn2c1C[C@@H](F)C2)n1cc2c(Cl)cc(-c3ccc(CN4C[C@H]5COC[C@H]5C4)cc3)c(Cl)c2n1` (mixture of isomers) [Example 99, rac-2-(4,7-Dichloro-6-(4-0(3aR,6aS)-tetrahydro-1H-furo[3,4-c]pyrrol-5(3H)-yl)methyl)phenyl)-2H-indazol-2-yl)-2-((R)-6-fluoro-6,7-dihydro-5H-pyrrolo[1,2-c]imidazol-1-yl)-N-(thiazol-2-yl)acetamide], 6 nM.
Molecule `O=C(Nc1nccs1)C(c1ncn2c1C[C@@H](F)C2)n1cc2c(Cl)cc(-c3ccc(OCCN4CCC(CO)CC4)cc3)c(Cl)c2n1` (mixture of isomers) [Example 68, rac-2-(4,7-Dichloro-6-(4-(2-(4-(hydroxymethyl)piperidin-1-yl)ethoxy)phenyl)-2H-indazol-2-yl)-2-((R)-6-fluoro-6,7-dihydro-5H-pyrrolo[1,2-c]imidazol-1-yl)-N-(thiazol-2-yl)acetamide] displayed an IC50 of 4 nM.

These data come from US12479849B2, “EGFR inhibitors for the treatment of cancer” (Hoffmann-La Roche Inc., priority 2019, dated 2025).
